# Test results reported in US10316061B2, “Synthesis of cell penetrating peptides for drug delivery and stem cell applications” (Temple University-Of The Commonwealth System of Higher …, priority 2014, dated 2019).
# Experiments:
# [1] = system: ReNcell VM cells; test: Immunocytochemistry of Tubb3 / MAP2 protein expression in 4-week differentiated ReNcell VM; type: cell-based, human
# Protocol: FIG. 15. Tubb3 Expression Analysis for 4-Week Differentiated ReNcell VM Cells. ReNcell VM cells were treated with neural stem cell culture medium (control), RA (retinoic acid), RA-PepB, C16-PepB, LiCl, and IFNγ (interferon gamma). Tubb3 proteins expressed in the cells were stained as green and cell nuclei were stained with blue (DAPI).
# FIG. 16. MAP2 Expression Analysis for 4-Week Differentiated ReNcell VM Cells. ReNcell VM treated with cell culture media (control), RA, RA-PepB, C16-PepB, LiCl, and IFNγ (interferon gamma). MAP2 proteins expressed in the cells were stained as green and cell nuclei were stained with blue (DAPI) FIG. 17. Quantitation of Immunocytochemistry Results for Tubb3/MAP2 Proteins. Relative numbers of the cells expressing Tubb3 and MAP2 proteins were counted and normalized to the control group (*P<0.05, **P<0.01).
# The proteins expressed in ReNcell VM cells were visualized with antibodies to study the protein expression by the differentiation of the stem cells in the presence of various soluble factors including RA-PepB and C16-PepB. […] As is shown in FIGS. 15 and 16, Tubb3 or MAP2 expression levels in 4-week differentiated ReNcell VM cells were evaluated via immunocytochemistry (ICC). Protein expression, after antibody staining, was visualized and quantitatively compared by counting Tubb3 or MAP2-positive cells. […]
# [2] = system: ReNcell VM; test: RT-qPCR analysis of neural marker gene expression in differentiated ReNcell VM; type: cell-based, human
# Protocol: Differentiated stem cells were cultured for 10 weeks.
# The statistical significance was evaluated compared to the control (differentiated ReNcell VM without chemicals) *P<0.05, **P<0.01. GAPDH served as control.
# Total mRNA was extracted using mRNA isolation kit (Ambion, Life Technologies) according to the manufacturer's protocol. For higher yield, neural stem cells from eight wells in the same culture plate were homogenized in cell lysis buffer.
# Concentrations of mRNA samples were evaluated based on OD260/OD280. mRNA samples were reverse transcribed using reverse transcription kit (Applied Biosystems). PCR amplification of cDNA was carried out using universal PCR master mix (Applied Biosystems) and gene-specific primer sets (Applied Biosystems). These primers included neural stem cell (Nestin, SOX2), immature neuron (Tubb3), mature neuron (MAP2), and astrocyte (GFAP) specific genes. GAPDH was used as a control (house keeping gene). The cycles for RT-PCR consisted of 1 second denaturation at 95° C., 20 second annealing at 60° C. RT-PCR products were analyzed using Mastercycler ep realplex 4 (Eppendorf).
# [3] = system: HEK293 cells; test: Live-cell / confocal uptake of ROX-labeled PepA derivatives in HEK293; type: cell-based; details: HEK293 cultures; ROX dye label
# Source text: FIG. 9 is a series of images depicting live-cell uptake of bioactive peptide A (PepA) labeled with the ROX Dye. Bioconjugation with palmitic acid (C16 tail) and/or CPP AAAAEK (PepX) attachments increased cellular uptake in HEK293 cultures.
# FIG. 11 is a series of images depicting laser-scanning confocal microscope imaging of bioactive peptide A (PepA) labeled with the ROX dye. Bioconjugation with palmitic acid (C16 tail) and/or CPP AAAAEK (PepX) attachments increased cellular uptake in HEK293 cultures.
# Bioactive (model) peptide A (PepA) and CPP X (PepX) were synthesized via solid phase peptide synthesis (SPPS) methods (Suh et al., 2001 Comprehen. Biomat 4: 219-245; Suh et al., 2013 Polymer Adhesion, Friction and Lubrication 283-317 (Wiley)). Fmoc-deprotection was performed with organic bases such as 4-methyl piperidine and DBU in DMF at room temperature. Coupling reaction was performed in the presence of Fmoc-protected amino acids with the mixture of coupling reagents and organic bases (e.g., HBTU, HOBt and DIEA). The cleaved peptide from the resin was purified by HPLC, collected, and stored for future uses. HEK293 and ReNcell VM cell lines were maintained and utilized for cellular experiments. Live-Cell imaging analysis was performed on an Olympus IX81 and IX83-DSU wide-field spinning disc confocal microscope equipped with an LCI Chamlide stage-top incubator unit. […]
molecule,measurement,setting,value
"[Cl-].[Li+] [LiCl, lithium chloride]","Tubb3 expression compared to the control (ICC, positive cell count)",[1],statistically significant increases
AAAAEK(A) [PepB],neuronal differentiation by qRT-PCR (FIGS. 12 and 13),"[2]; 1 to 4 weeks of differentiation, GAPDH control",increased neuronal differentiations
same,live-cell uptake (FIG. 9),[3],increased cellular uptake of multiple peptides in a synergistic manner
"CC1=C(/C=C/C(C)=C/C=C/C(C)=C/C(=O)O)C(C)(C)CCC1 [RA, Retinoic acid]",cytotoxicity in differentiation culture (FIG. 6),[2]; differentiated stem cells cultured for 10 weeks,Highly cytotoxic; low cell count among results
